The text below walks through data of patent publication US11339144B2 (Navitor Pharmaceuticals, Inc., priority 2017, dated 2022).

One test addresses Rheb (Homo sapiens (Human), UniProt Q15382). Nature of the test: Affinity Selection Mass Spectrometry (ASMS). It counts as binding. Particulars: affinity (R3/R0) in Affinity Selection Mass Spectrometry assay. Here is the method:
Method 2 (Affinity Selection Mass Spectrometry
Protein: Rheb (19 KDa) in the following buffer: 20 mM Tris, pH 8.0, 200 mM NaCl, 2 mM DTT, 5 mM MgCl2 was prepared as under.
Human Rheb protein (I-169) was purified from BL21 (DE3) E. coli using a His-Smt-Rheb expression vector. The cell paste was lysed in lysis buffer (50 mM HEPES pH 7.5, 0.5 M NaCl, 5% Glycerol, 1% CHAPS, EDTA free protease inhibitor tablets, lysozyme to 1 mg/mL, benzonase 250U), sonicated, and purified on a HiTrap Ni Chelating Column (GE Healthcare) using the following buffer: 50 mM HEPES pH 7.5, 0.5 M NaCl, 5% Glycerol, and imidazole increasing in concentration from 5 mM to 500 mM. The His-Smt tag was cleaved using a U1p1 enzyme and dialyzed into 50 mM HEPES pH 7.5, 0.5 M NaCl, 5% Glycerol. The resultant protein was again purified on a Ni Chelating column to remove the U1p1 enzyme and His-Smt tag and then purified by size exclusion chromatography on a Sephacryl S-100 26/60 column into the following final buffer: 20 mM NaPhos pH 7.0, 100 mM NaCl, 5 mM MgCl2, 2 mM TCEP.
Concentrations: 60 μM Rheb, 180 μM GDP and 2 μM of each compound,
Ultrafiltration Filter (Sartorius, Germany) MW cutoff: 10 KDa
• (a) Sample preparation: Prepare sample for each group in 1.5 mL microcentrifuge tube according to the experimental design, total volume 550 μL. In a standard ASMS experiment there are two groups: Protein plus (P+L+) and protein minus (P−L+). • (b) Transfer 50 μL from the 550 μL to a vial as R0 sample. Incubate the rest solution for 30 min at room temperature. Then transfer the 500 μL into an ultrafiltration filter tube and centrifuge at 12×10^3 rpm for ˜10 min, leave about 50 μL solution (otherwise adjust this time). • (c) Add incubation buffer to the ultrafiltration filter tube to about 500 μL. Stir gently and centrifuge mixtures as above, leave about 50 μL solution. • (d) Repeat the step c. Transfer the remaining 50 μL upper layer solution to a new vial as R^3 sample. Sample Extraction: Add 150 μL MeCN to denature the protein completely. Centrifuge at 12×10^3 rpm for 5 min. Transfer the supernatant into LC-MS auto sampler vials for LC-MS analysis (5 uL injection).
Waters Acquity UPLC system, Waters ACQUITY UPLC BEH C18 column (2.1×50 mm, 1.7 μM); Mobile phase A: 0.1% formic acid solution, B: MeCN; 0.3 mL/min, 5 μL injection, gradient elution (Table 5).
Waters Synapt G1 Q-TOF system, positive or negative ion scan modes; Capillary voltage: 3.0 kV; Method: MSE; Mass range: m/z=100-1000; Source temperature: 120° C.; Desolvation temperature: 400° C.; Collision voltage: 35 V; Sampling Cone: 35 V; Extraction Cone: 4.0 V; Cone Gas: 50 L/h; Desolvation Gas: 800 L/h.

Test [1] concerns the target HA-GST-Rheb (GTP-γ-S loaded) activating mTORC1 (Homo sapiens (Human), UniProt Q15382). Nature of the test: Rheb-dependent in vitro kinase assay (Rheb-IVK; LanthaScreen or Western readout). Particulars: Rheb-dependent in vitro kinase assay; read-out: IVK IC50. It is filed as biochemical.

The structures appear in SMILES notation.

HA-GST-Rheb (GTP-γ-S loaded) activating mTORC1, sequence (Q15382 1-181): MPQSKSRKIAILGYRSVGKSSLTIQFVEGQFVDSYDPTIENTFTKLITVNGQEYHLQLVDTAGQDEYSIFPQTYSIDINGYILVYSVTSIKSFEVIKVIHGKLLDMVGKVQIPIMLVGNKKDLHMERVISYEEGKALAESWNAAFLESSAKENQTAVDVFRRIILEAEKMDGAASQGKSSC
Rheb, sequence (Q15382 1-169 limits assumed): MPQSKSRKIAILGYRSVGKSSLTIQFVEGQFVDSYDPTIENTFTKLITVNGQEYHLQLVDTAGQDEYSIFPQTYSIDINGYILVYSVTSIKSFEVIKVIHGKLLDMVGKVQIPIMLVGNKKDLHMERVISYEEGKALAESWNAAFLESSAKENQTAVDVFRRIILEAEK

Turning to `OCc1cc2c(Sc3cccc4cccnc34)cc(Cl)cc2[nH]1` [I-74, (6-chloro-4-(quinolin-8-ylthio)-1H-indol-2-yl)methanol], the “ASMS (R3/R0)” value at Rheb is “B (an affinity (R3/R0) between 100% and 20%)”. The concentration for half-maximal inhibition (IC50) in test [1] fell in the range of 10 to 100 µM.

Consider `COCc1cc2c(Br)cc(Sc3ccc(Cl)c(Cl)c3)cc2n1Cc1ccc(C(=O)N(C)C)cc1` [I-34], for which the “ASMS (R3/R0)” value at Rheb is “B (an affinity (R3/R0) between 100% and 20%)”. Moreover, the IC50 in test [1] was above 100 µM.

Take `OCc1cc2c(Cl)cc(Oc3ccccc3)cc2[nH]1` [I-252, (4-chloro-6-phenoxy-1H-indol-2-yl)methanol]: the “ASMS (R3/R0)” value on Rheb is “B (an affinity (R3/R0) between 100% and 20%)”. Moreover, the IC50 in test [1] was in the range of 10 to 100 µM.

In the case of `O[C@@H]1CCC[C@H](COc2c(Cl)c(Cl)cc3[nH]c(-c4ccncc4)nc23)C1` [I-324, (1R,3S)-3-((5,6-dichloro-2-(pyridin-4-yl)-1H-benzo[d]imidazol-4-yloxy)methyl)cyclohexanol], the “ASMS (R3/R0)” value at Rheb is “B (an affinity (R3/R0) between 100% and 20%)”. Besides, the IC50 in test [1] was above 3 µM.

Turning to `OCc1nc2cc(OCc3ccc(OC(F)(F)F)cc3)c(Cl)c(Cl)c2[nH]1` [I-352, (6,7-dichloro-5-(4-(trifluoromethoxy)benzyloxy)-1H-benzo[d]imidazol-2-yl)methanol], the “ASMS (R3/R0)” value at Rheb is on record as “A (an affinity (R3/R0)>100%)”. Besides, the IC50 in test [1] is above 3 µM.

Take `OCc1nc2c(OCC3COCC3O)c(Cl)c(Cl)cc2[nH]1` (stereo not shown) [I-381]: on Rheb, the “ASMS (R3/R0)” value was “C (an affinity (R3/R0)<20%)”. The IC50 in test [1] is above 100 µM.

With `O=C(Nc1ncc[nH]1)c1cc2c(Sc3ccc(Cl)cc3)cc(Cl)cc2[nH]1` [I-63], the “ASMS (R3/R0)” value at Rheb is “A (an affinity (R3/R0)>100%)”. Moreover, the IC50 in test [1] is above 100 µM.

`OCc1cc2c(Br)cc(OCc3ccccc3)cc2[nH]1` [I-241, (6-(Benzyloxy)-4-bromo-1H-indol-2-yl)methanol]: the “ASMS (R3/R0)” value at Rheb was “B (an affinity (R3/R0) between 100% and 20%)”. The half-inhibitory concentration (IC50) in test [1] fell in the range of 10 to 100 µM.

Take `Brc1cc(Oc2ccccc2)cc2c1ccn2Cc1ccc(-c2nn[nH]n2)cc1` [I-220, 1-(4-(2H-tetrazol-5-yl)benzyl)-4-bromo-6-phenoxy-1H-indole]: the “ASMS (R3/R0)” value at Rheb is on record as “A (an affinity (R3/R0)>100%)”. In addition, the IC50 in test [1] was below 10 µM.

On to `Cn1ccc2c(Oc3ccccc3F)cccc21` [I-267], for which the “ASMS (R3/R0)” value on Rheb is on record as “C (an affinity (R3/R0)<20%)”. Further, in test [1], the IC50 was above 3 µM.

For `OCc1nc2c(OCC3CCCC3O)c(Cl)c(Cl)cc2[nH]1` (stereo not shown) [I-379, 2-((5,6-dichloro-2-(hydroxymethyl)-1H-benzo[d]imidazol-4-yloxy)methyl)cyclopentanol], on Rheb, the “ASMS (R3/R0)” value was “C (an affinity (R3/R0)<20%)”. In addition, in test [1], the IC50 is above 100 µM.

Consider `O=C(O)c1cc2c(OCc3ccc(Cl)cc3)cc(Cl)c(Cl)c2[nH]1` [I-60, 6,7-dichloro-4-(4-chlorobenzyloxy)-1H-indole-2-carboxylic acid], for which, at Rheb, the “ASMS (R3/R0)” value is “B (an affinity (R3/R0) between 100% and 20%)”. The IC50 in test [1] was in the range of 10 to 100 µM.

Regarding `O=C(NCc1ccccn1)c1cc2c(Sc3ccc(Cl)cc3)cc(Cl)cc2[nH]1` [I-149, 6-chloro-4-(4-chlorophenylthio)-N-(pyridin-2-ylmethyl)-1H-indole-2-carboxamide], at Rheb, the “ASMS (R3/R0)” value is “B (an affinity (R3/R0) between 100% and 20%)”. For the same compound, the IC50 in test [1] was 10 to 100 µM.

For `COc1ccc(COc2cc3nc(CO)[nH]c3c(Cl)c2Cl)cc1` [I-328], the “ASMS (R3/R0)” value at Rheb is “B (an affinity (R3/R0) between 100% and 20%)”. For the same compound, the IC50 in test [1] is above 100 µM.

For `CN1CCN(C(=O)c2ccc(Cn3c(C(=O)O)cc4c(Br)cc(Oc5ccccc5)cc43)cc2)CC1` [I-68], the “ASMS (R3/R0)” value on Rheb is “C (an affinity (R3/R0)<20%)”. For the same compound, the IC50 in test [1] is above 3 µM.

As to `Clc1ccccc1Sc1cccc2[nH]ccc12` [I-244, 4-(2-chlorophenylthio)-1H-indole], at Rheb, the “ASMS (R3/R0)” value was “B (an affinity (R3/R0) between 100% and 20%)”. In addition, the IC50 in test [1] lay within 10 to 100 µM.

With `CN1CCN(c2ccc(-c3nc4cc(Cl)c(Cl)cc4[nH]3)cc2)CC1` [I-366, 5,6-dichloro-2-(4-(4-methylpiperazin-1-yl)phenyl)-1H-benzo[d]imidazole], the “ASMS (R3/R0)” value at Rheb is reported as “A (an affinity (R3/R0)>100%)”. In test [1], the concentration for half-maximal inhibition (IC50) was 100 to 300 µM.

Turning to `CN1CCN(c2ccc(NC(=O)c3cc4c(Sc5ccc(Cl)cc5Cl)cc(Cl)cc4[nH]3)cc2C#N)CC1` [I-112, 6-chloro-N-(3-cyano-4-(4-methylpiperazin-1-yl)phenyl)-4-(2,4-dichlorophenylthio)-1H-indole-2-carboxamide], the “ASMS (R3/R0)” value at Rheb was “C (an affinity (R3/R0)<20%)”. Moreover, the IC50 in test [1] was below 10 µM.

For `OCc1nc2cc(OCc3ccc(Oc4ccccc4)cc3)c(Cl)c(Cl)c2[nH]1` [I-320, [6,7-dichloro-5-[(4-phenoxyphenyl)methoxy]-1H-benzimidazol-2-yl]methanol], the “ASMS (R3/R0)” value at Rheb was “B (an affinity (R3/R0) between 100% and 20%)”. Moreover, the IC50 in test [1] lay within 10 to 100 µM.

In the case of `O=C(Nc1cccnc1)c1ccc(Cn2c(C(=O)O)cc3c(Br)cc(Oc4ccccc4)cc32)cc1` [I-56, 4-bromo-6-phenoxy-1-(4-(pyridin-3-ylcarbamoyl)benzyl)-1H-indole-2-carboxylic acid], the “ASMS (R3/R0)” value at Rheb was “B (an affinity (R3/R0) between 100% and 20%)”. Besides, the IC50 in test [1] was 10 to 100 µM.

Consider `Clc1ccc(Sc2cc(Cl)cc3[nH]c(-c4c[nH]c5ncccc45)nc23)cc1` [I-339, 6-chloro-4-(4-chlorophenylthio)-2-(1H-pyrrolo[2,3-b]pyridin-3-yl)-1H-benzo[d]imidazole], for which the “ASMS (R3/R0)” value on Rheb is “B (an affinity (R3/R0) between 100% and 20%)”. For the same compound, in test [1], the IC50 is above 3 µM.

For `CN(C)C(=O)c1ccc(Cn2c(C(=O)O)cc3c(Br)cc(SCC4CCCCC4)cc32)cc1` [I-24, 4-bromo-6-(cyclohexylmethylthio)-1-(4-(dimethylcarbamoyl)benzyl)-1H-indole-2-carboxylic acid], the “ASMS (R3/R0)” value on Rheb was “B (an affinity (R3/R0) between 100% and 20%)”. For the same compound, the IC50 in test [1] was below 10 µM.

`OCc1nc2c(OCC3CCC(O)CC3)c(Cl)c(Cl)cc2[nH]1` (stereo not shown) [I-399, 4-((5,6-dichloro-2-(hydroxymethyl)-1H-benzo[d]imidazol-4-yloxy)methyl)cyclohexanol]: at Rheb, the “ASMS (R3/R0)” value is recorded as “C (an affinity (R3/R0)<20%)”. Also, in test [1], the IC50 lay in the range of 10 to 100 µM.

Consider `Cn1c(CO)nc2cc(OCc3ccccc3)c(Cl)cc21` [I-425, (5-(benzyloxy)-6-chloro-1-methyl-1H-benzo[d]imidazol-2-yl)methanol], for which, on Rheb, the “ASMS (R3/R0)” value is on record as “C (an affinity (R3/R0)<20%)”. Further, the IC50 in test [1] was above 3 µM.

In the case of `OCC(O)c1nc2c(OCC3CCCCC3)c(Cl)c(Cl)cc2[nH]1` (stereo not shown) [I-325, 1-(5,6-dichloro-4-(cyclohexylmethoxy)-1H-benzo[d]imidazol-2-yl)ethane-1,2-diol], the “ASMS (R3/R0)” value at Rheb is “B (an affinity (R3/R0) between 100% and 20%)”. Moreover, the IC50 in test [1] lay in the range of 10 to 100 µM.

On to `Clc1cccc(Oc2cccc3[nH]ccc23)c1Cl` [I-254, 4-(2,3-Dichlorophenoxy)-1H-indole], for which, at Rheb, the “ASMS (R3/R0)” value was “B (an affinity (R3/R0) between 100% and 20%)”. Further, the IC50 in test [1] was in the range of 10 to 100 µM.

Take `O=C(O)c1cc2nc(-c3ccnc4[nH]ccc34)[nH]c2c(Cl)c1Cl` [I-327]: the “ASMS (R3/R0)” value at Rheb is recorded as “C (an affinity (R3/R0)<20%)”. For the same compound, the IC50 in test [1] was above 100 µM.

Regarding `C[Si](C)(C)CC(O)c1cc2c(Oc3ccccc3)cc(Cl)cc2[nH]1` (stereo not shown) [I-159, 1-(6-chloro-4-phenoxy-1H-indol-2-yl)-2-(trimethylsilyl)ethanol], on Rheb, the “ASMS (R3/R0)” value is listed as “C (an affinity (R3/R0)<20%)”. Besides, the IC50 in test [1] was in the range of 10 to 100 µM.

As to `O=C(O)c1cc2c(Sc3ccc(Cl)cc3Cl)cc(Cl)c(Cl)c2[nH]1` [I-45, 6,7-dichloro-4-(2,4-dichlorophenylthio)-1H-indole-2-carboxylic acid], at Rheb, the “ASMS (R3/R0)” value was “A (an affinity (R3/R0)>100%)”. Moreover, the IC50 in test [1] is below 10 µM.
